Data as given in patent US9951028B2, “Agricultural chemicals” (REDAG CROP PROTECTION LTD, priority 2013, dated 2018).

How the values were obtained:
Type in all cases: in vivo
[1] = system: A. retroflexus, A. theophrasti, C. bursa pastoris; experiment: Herbicidal efficacy screen, text summary of table 2 over all target weed species; settings: certain weed species, after 1 day
Excerpt: Certain compounds of the invention were screened for herbicidal efficacy against target plants: Amaranthus retroflexus (redroot pigweed), Abutilon theophrasti (China Jute): Capsella bursa-pastoris, (shepherd's-purse) Echinochloa crus-galli, Hordeum vulgare (Barley),

[2] = system: Abutilon theophrasti (China Jute); experiment: Herbicidal efficacy screen, corrected necrosis
[3] = system: Amaranthus retroflexus (redroot pigweed); experiment: Herbicidal efficacy screen, corrected necrosis
[4] = system: Capsella bursa-pastoris, (shepherd's-purse); experiment: Herbicidal efficacy screen, corrected necrosis
[5] = 6.25 g/ha, day 1 post application
[6] = 6.25 g/ha, day 7 post application
[7] = 12.5 g/ha, day 1 post application
[8] = 12.5 g/ha, day 7 post application
[9] = 25 g/ha, day 1 post application
[10] = 25 g/ha, day 7 post application
[11] = 50 g/ha, day 1 post application
[12] = 50 g/ha, day 7 post application
[13] = 100 g/ha, day 1 post application
[14] = 100 g/ha, day 7 post application

CC(C)C(C)S(=O)(=O)NC(=O)c1cc(-n2c(=O)cc(C(F)(F)F)n(C)c2=O)c(F)cc1Cl (stereo not shown) [Compound 26, 2-Chloro-N-(1,2-dimethylpropylsulfonyl)-4-fluoro-5-[3-methyl-2,6-dioxo-4-(trifluoromethyl)pyrimidin-1-yl]benzamide]
control compared with the reference compound (saflufenacil) [1]: better control
Average of corrected necrosis [2, 5]: C (C represents a percentage increase in necrosis relative to the control of 0.1-50)
Average of corrected necrosis [2, 6]: A (A represents a percentage inhibition of 80-100)
Average of corrected necrosis [2, 7]: 0%
Average of corrected necrosis [2, 8]: A (A represents a percentage inhibition of 80-100)
Average of corrected necrosis [2, 9]: C (C represents a percentage increase in necrosis relative to the control of 0.1-50)
Average of corrected necrosis [2, 10]: A (A represents a percentage inhibition of 80-100)
Average of corrected necrosis [2, 11]: C (C represents a percentage increase in necrosis relative to the control of 0.1-50)
Average of corrected necrosis [2, 12]: A (A represents a percentage inhibition of 80-100)
Average of corrected necrosis [2, 13]: B (B represents a percentage inhibition of 50-80)
Average of corrected necrosis [2, 14]: A (A represents a percentage inhibition of 80-100)
Average of corrected necrosis [3, 5]: C (C represents a percentage increase in necrosis relative to the control of 0.1-50)
Average of corrected necrosis [3, 6]: A (A represents a percentage inhibition of 80-100)
Average of corrected necrosis [3, 7]: C (C represents a percentage increase in necrosis relative to the control of 0.1-50)
Average of corrected necrosis [3, 8]: A (A represents a percentage inhibition of 80-100)
Average of corrected necrosis [3, 9]: C (C represents a percentage increase in necrosis relative to the control of 0.1-50)
Average of corrected necrosis [3, 10]: A (A represents a percentage inhibition of 80-100)
Average of corrected necrosis [3, 11]: C (C represents a percentage increase in necrosis relative to the control of 0.1-50)
Average of corrected necrosis [3, 12]: A (A represents a percentage inhibition of 80-100)
Average of corrected necrosis [3, 13]: C (C represents a percentage increase in necrosis relative to the control of 0.1-50)
Average of corrected necrosis [3, 14]: A (A represents a percentage inhibition of 80-100)
Average of corrected necrosis [4, 5]: C (C represents a percentage increase in necrosis relative to the control of 0.1-50)
Average of corrected necrosis [4, 6]: A (A represents a percentage inhibition of 80-100)
Average of corrected necrosis [4, 7]: C (C represents a percentage increase in necrosis relative to the control of 0.1-50)
Average of corrected necrosis [4, 8]: 0%
Average of corrected necrosis [4, 9]: C (C represents a percentage increase in necrosis relative to the control of 0.1-50)
Average of corrected necrosis [4, 10]: A (A represents a percentage inhibition of 80-100)
Average of corrected necrosis [4, 11]: C (C represents a percentage increase in necrosis relative to the control of 0.1-50)
Average of corrected necrosis [4, 12]: A (A represents a percentage inhibition of 80-100)
Average of corrected necrosis [4, 13]: C (C represents a percentage increase in necrosis relative to the control of 0.1-50)
Average of corrected necrosis [4, 14]: A (A represents a percentage inhibition of 80-100)
